The source made the active and inactive calls.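 How the source made its calls: active means compounds giving half or more protection of infected cells from virus-caused growth loss, again on retest; inactive means the rest.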 Where a SMILES comes first, the peptide text is derived from it. [ ]: non-standard residue; d: D form. The star is where a group is joined. Ac5c = NC1(C(=O)O)CCCC1; Cbz = O=C(OCc1ccccc1)*; Boc = CC(C)(C)OC(=O)*; tBu = CC(C)(C)*
Tested on: CEM cells HIV-1 protection, formazan growth assay
Assay: NCI AIDS Antiviral Assay
Settings: for IC50: measured here: growth of uninfected CEM cells
Method in brief: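 Five concentrations of each compound were applied to infected and uninfected human CEM cells. Protection from HIV-1 was judged from growth measured with a soluble formazan assay.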

Row | SMILES | EC50 [µM] | IC50 [µM] | outcome
1 | CCOC(=O)c1ccc(C(=O)C(C(C)=O)C(=O)OC(C)(C)C)n1C (stereo unspecified) | 43.7 | 74.1 | –
2 | C=C(C)C1CCC2(CO)C(O)CC3(C)C(CCC4C5(C)CCC(O)C(C)(C)C5CCC43C)C12 (stereo unspecified) | > 100 | 75.9 | –
3 | CC(=O)Nc1nnc(SSc2nnc(NC(C)=O)s2)s1 | 36.3 | 186 | –
4 | CC1C[C@@H]2OC(=O)C(C)[C@H]2C[C@]2(C)C(O)CC(O)C12 (stereo partly specified) | > 933 | 47.9 | –
5 | O=C(O)c1ccc(O)c(N=Nc2cc(S(=O)(=O)O)c3ccccc3c2O)c1 | > 25.7 | > 25.7 | –
6 | O=C1CC(c2ccccc2)=Nc2ccccc2N1 | > 151 | > 151 | –
7 | CC(=O)OC1CC2C(CCC3(C)C(OC(C)=O)CCC23)c2c(OS(=O)(=O)c3ccccc3)ccc(C)c21 (stereo unspecified) | > 100 | > 100 | –
8 | CN(C(=O)C12C3C4C1C1C2C3C41I)C(C)(C)C (stereo unspecified) | > 251 | > 251 | –
9 | COc1cc2c(cc1OCCN1C(=O)c3cccc4cccc(c34)C1=O)N=C[C@@H]1CCCN1C2=O | > 41.7 | 5.5 | –
10 | O=C1C(=O)c2ccccc2C(O)=C1Sc1ccc(Cl)cc1 | > 200 | 17.4 | –
11 | C=CCN1/C(=C2\SC(=S)N(c3ccc(C)cc3)C2=O)Sc2c1nc[nH]c2=O | > 2.51 | > 2.51 | –
12 | Cn1cnc2nc[nH]c2c1=N | > 200 | > 200 | –
13 | CCNC(=O)NNc1ncnc2c1c(-c1ccc(Cl)cc1)cn2-c1ccc(C)cc1 | > 200 | 35.5 | –
14 | C[N+]12CCCCC1CC2 (stereo unspecified) | 47.9 | 355 | –
15 | CC1(C)OC2COC3([C@@H]4OC(C)(C)O[C@@H]4CO)OC(C)(C)OC3C2O1 (stereo partly specified) | > 200 | > 200 | –
16 | Cc1ccc(S(=O)(=O)N/N=C2\CC(C)OC3=C2CCCCCC3)cc1 (stereo unspecified) | > 200 | 33.9 | –
17 | CC(C)(C)N1OC2(CCCCC2)n2c(=O)c3ccccc3c(=O)n2C1c1ccccc1 (stereo unspecified) | > 589 | > 589 | –
18 | COc1cccc(NC(=O)CC(=O)Nc2cccc(OC)c2)c1 | > 200 | > 200 | –
19 | CC(C)(C)C(=O)N1C(C(=O)O)Cc2ccccc2[C@@H]1Cc1ccccc1 (stereo partly specified) | > 74.1 | > 74.1 | –
20 | COc1cc2c(cc1O)[C@H](Cc1ccc(Oc3cc(C[C@H]4c5cc(OC)c(OC)cc5CCN4C)ccc3OC)cc1)NCC2 | – | – | inactive
21 | Cn1c2cc(Cl)ccc2c2ccc3c(c21)C(=O)C=CC3=O | > 200 | 4.17 | –
22 | COC1(C)OC23C(=O)N(C)C(=O)N(C)C2(O1)N(C(C)=O)C(=O)N3C (stereo unspecified) | > 200 | > 200 | –

Row | SMILES | EC50 [µM] | IC50 [µM] | outcome
23 | COC(=O)C1=CC2C=CC(C1C(=O)OC)C1C(C(=O)OC)=C(C(=O)OC)C(C(=O)OC)=C(C(=O)OC)C21OC (stereo unspecified) | – | – | inactive
24 | COc1ccc(-c2cc(-c3ccc4c(c3)CC(C)O4)nc(N)n2)cc1 (stereo unspecified) | > 30.2 | 20 | –
25 | O=c1c2cc(-c3ccccc3)cnc2sn1-c1ccc(Oc2ccccc2)cc1 | 69.2 | 110 | –
26 | C/C(=N\NC(N)=S)C(CN1CCCCC1)C(C1=C(O)c2ccccc2OC1)c1ccccc1 (stereo unspecified) | > 224 | 123 | –
27 | Cn1c(O)c(C=Nc2ccc(Cl)cc2Cl)c(=O)n(C)c1=O | > 200 | > 200 | –
28 | CCOC(=O)/C=C1\SC12C(C)(C)CCCC2(C)C | > 200 | 61.7 | –
29 | CC(C)(C)OC[C@H]1N([C@H](COCc2ccccc2)c2ccccc2)C(=O)C1(C)C | > 170 | 117 | –
30 | CCOC(=O)c1sc(N/N=C2\NC(=O)/C(=C/c3ccc([N+](=O)[O-])cc3)S2)nc1C | > 200 | 135 | –
31 | O=C1NC2NC3NC(=O)NC3NC2N1 (stereo unspecified) | > 200 | > 200 | –
32 | COC(=O)CCCC=C(c1cc(F)c(OC)c(C(=O)OC)c1)c1cc(F)c(OC)c(C(=O)OC)c1 | 1.7 | 64.6 | –
33 | CC1=C/C(=N\O)C(C(O)(C(F)(F)F)C(F)(F)F)C(C)(C)C1 (stereo unspecified) | > 200 | 135 | –
34 | CCOC(=O)C(=O)C1CCCCC1=O (stereo unspecified) | > 200 | 43.7 | –
35 | CCCCCCCCCCCc1noc2c1C(=O)CCC2 | > 24.5 | > 24.5 | –
36 | COCCN(CCOC)C1C2=C(CCCC2)OS(=O)(=O)C1c1ccccc1 (stereo unspecified) | > 66.1 | > 66.1 | –
37 | CCOC1=C2C(C)(CCC3[C@@]4(C)C=CC(=O)C(C)(C)C4CC(O)[C@@]23C)C(c2ccoc2)C1=O (stereo partly specified) | > 79.4 | 17.8 | –
38 | Cc1ccc(-n2cc(-c3ccc(Cl)cc3)c3c(NNC(=S)NCc4ccccc4)ncnc32)cc1 | > 200 | 7.59 | –
39 | Nc1ccc(/C=C/c2ccc(NCc3c(O)cc(O)cc3C(=O)O)cc2S(=O)(=O)O)c(S(=O)(=O)O)c1 | 107 | > 200 | –
40 | O=Cc1ccc(C=O)n1C1CCOC1=O (stereo unspecified) | – | – | inactive
41 | C=C(CO[Si](C)(C)C(C)(C)C)C(C)=O | – | – | inactive
42 | Cc1ccc2nc(-c3ccc(-c4nc5ccc(C)cc5o4)c(O)c3)oc2c1 | > 200 | > 200 | –
43 | CC(C)(C)C1=C(Br)C(OC(=O)C(F)(F)F)(C(C)(C)C)OP1(=O)c1ccccc1 (stereo unspecified) | > 200 | 74.1 | –
44 | c1ccc(N2N=NC3C4CC(C5CCCC54)C32)cc1 (stereo unspecified) | > 200 | > 100 | –

Row | SMILES | EC50 [µM] | IC50 [µM] | outcome
45 | Cc1cc(N)ccc1N=Nc1ccc(S(=O)(=O)CCOS(=O)(=O)O)cc1 | > 2 | 0.912 | –
46 | Cc1[nH]c(=S)c(C#N)c(C)c1C | > 100 | > 100 | –
47 | COc1cc(C2C(Cl)C(=O)N2NC(=O)c2ccc(N)cc2)cc(Br)c1O (stereo unspecified) | > 200 | 13.2 | –
48 | COc1cc2nn(-c3ccccc3)nc2c2nonc12 | > 200 | > 200 | –
49 | Cc1cc(C)cc(-n2c3nc(=O)n(C)c(=O)c-3nc3ccccc32)c1 | – | – | inactive
50 | Cn1c2c3ccccc3nc-2cc2ccccc21 | > 174 | 0.316 | –
51 | COc1c(O)cc2oc(-c3ccc(O)cc3)cc(=O)c2c1O | > 148 | 35.5 | –
52 | O=c1[nH]cnc2c1ncn2[C@H]1CO[C@@H](CO)[C@@H]1O | > 100 | > 100 | –
53 | O=C(c1cc2ccccc2[nH]1)C(O)(c1cc2ccccc2[nH]1)c1cc2ccccc2[nH]1 | > 9.33 | > 9.33 | –
54 | CCN(CC)CCN1C(=O)C2C3C=CC(C2C1=O)C1C2C(=O)N(CCN(CC)CC)C(=O)C2C31 (stereo unspecified) | > 200 | > 200 | –
55 | COC(=O)c1c(C)cccc1/C=C1/Cc2c(C)cccc2C1=O | > 200 | > 200 | –
56 | O=[N+]([O-])c1ccc(-[n+]2ccc3ccccc3c2)c([N+](=O)[O-])c1 | > 759 | 4.79 | –
57 | COc1cc2c(c3oc(=O)cc(-c4ccccc4)c13)C(=O)[C@H](C)[C@@H](C)O2 | > 200 | > 200 | –
58 | O=C(CC(=O)N1N=C(c2ccccc2)C(N=Nc2ccccc2[N+](=O)[O-])C1=O)Nc1ccccc1F (stereo unspecified) | > 27.5 | > 27.5 | –
59 | COc1ccc(N2C(=O)CC(=O)N(C(=O)COc3ccc(OCC(=O)N4C(=O)CC(=O)N(c5ccc(OC)cc5)C4=S)cc3)C2=S)cc1 | > 200 | 50.1 | –
60 | C=C(CN(C)C)C(=O)c1ccc(OC)cc1 | – | – | inactive
61 | CC1C=CC(C(=O)O)C2C(=O)OC(=O)C12 (stereo unspecified) | > 1200 | > 1200 | –
62 | C#CC(O)/C=C/CCCCCCCCC/C=C/CCCCCCCCC/C=C/C(O)C#C (stereo unspecified) | – | – | inactive
63 | CC(=O)/C(=C/N1C(=O)CC(=O)NC1=S)C(=O)Nc1ccccc1C | > 200 | 178 | –
64 | COc1ccc(-c2noc(=O)c3ccccc23)cc1 | – | – | inactive
65 | O=C(Nc1nc(C23CC4CC(CC(C4)C2)C3)cs1)c1cc2c(ccc3ccccc32)oc1=O | > 200 | > 200 | –
66 | C/C(=N\N=C(/[Se])N1CC2CCC(CC2)C1)c1ccccn1 | > 53.7 | 0.17 | –

Row | SMILES | EC50 [µM] | IC50 [µM] | outcome
67 | CC(C)=[CH][Sb]([Br])([CH]=C(C)C)([CH]=C(C)C)[c]1ccccc1 | > 562 | 6.76 | –
68 | FC(F)(F)c1nc(Cl)nc2nc[nH]c12 | > 200 | 97.7 | –
69 | CCCCCCCCCCCCCCCCC(C(=O)O)C(=O)O | > 21.9 | > 21.9 | –
70 | O=C1/C(=N\N(C(=O)c2ccccc2)c2ccccc2)c2cccc3cccc1c23 | > 3.8 | > 3.8 | –
71 | CN1C(=O)CCC2(c3ccccc3)CC=C(O)C=C12 (stereo unspecified) | > 200 | > 200 | –
72 | Cc1ccc(S(=O)(=O)Nn2c(O)c(C#N)c(-c3ccc([N+](=O)[O-])cc3)c(C#N)c2=O)cc1 | > 200 | > 200 | –
73 | COC(=O)C1=C(C(=O)OC)C2(C)Nc3ccccc3C2=C(c2ccccc2)C1 (stereo unspecified) | > 19.1 | > 19.1 | –
74 | COc1cc(O)c(C(=O)/C=C/c2ccc(Cl)c(Cl)c2)c(OC)c1 | > 200 | 3.02 | –
75 | CN(C)CCNC(=O)c1nn(-c2ccccc2)c2c1CSc1ccccc1-2 | > 200 | 110 | –
76 | CCC(C)COC(=O)c1ccc(N=Cc2ccc(C=Nc3ccc(C(=O)OCC(C)CC)cc3)cc2)cc1 (stereo unspecified) | > 2.82 | > 2.82 | –
77 | NC(=O)CCC(NS(=O)(=O)c1ccc(NC(=O)c2ccccc2)cc1)C(=O)O (stereo unspecified) | > 617 | > 617 | –
78 | COc1ccc2c(c1)CCc1cc(OC)ccc1/[N+]([O-])=[N+]\2[O-] | > 17.4 | > 17.4 | –
79 | Cc1c(Cl)cccc1Nc1ncccc1C(=O)O | > 200 | > 100 | –
80 | O=C1CCC2C(O)c3cc4c(cc3C(c3ccc5c(c3)OCO5)N12)OCO4 (stereo unspecified) | > 200 | > 200 | –
81 | CC(C)=COS(=O)(=O)C(F)(F)F | > 200 | 110 | –
82 | CC(C)(C)OC(=O)Cc1ccc2c(ccn2Cc2ccccc2)c1 | – | – | inactive
83 | COc1ccc(N=Nc2c(-c3ccccc3)nn(C(=O)CC(=O)Nc3ccccc3Cl)c2-c2ccccc2)cc1 | > 24.5 | 22.9 | –
84 | COC(=O)C1(NC(=O)C(Cc2ccccc2)NC(=O)C(NC(=O)C(CCCCNC(=O)OC(C)(C)C)NC(=O)C(Cc2c[nH]c3ccccc23)NC(=O)C(Cc2ccccc2)NC(=O)OCc2ccccc2)C(C)OC(C)(C)C)CCCC1 (stereo unspecified) (Cbz-FWK(Boc)T(tBu)F[Ac5c]-OMe; configuration not given here) | > 200 | 115 | –
85 | S=C(S)N(Cc1ccccc1)Cc1ccccc1 | > 200 | 24.5 | –
